We go through one compound from patent US8993637B2 (priority 2013, dated 2015).

For data set [1], the system named is mouse FSGS model (adriamycin-induced, BALB/c mice). In words: Mouse FSGS model: urine protein and renal function (serum BUN, Cr). Particulars: Citral 200 mg/kg daily by gavage. In kind it is in vivo. How it is done: A progressive type of mouse FSGS model was used, particularly characterized by EPHLs, a key histopathology index of progression of FSGS, peri-glomerular inflammation, and progressive glomerular hyalinosis/sclerosis. The FSGS model was induced in 8-week-old male BALB/c mice (National Laboratory Animal Center, Taipei, Taiwan) by intravenous injection of a single dose of adriamycin (0.10 mg/10 g body weight) (Pfizer, New York, N.Y.) as described previously. […] Age- and sex-matched BALB/c mice were used as normal controls. Urine samples were collected in metabolic cages on days 3, 7, 14, 21, and 28. Renal cortical tissues and blood samples were collected when the mice were sacrificed and stored appropriately for further analysis. The concentration of urine protein was determined using BCA kits (Pierce, Rockford, Ill.) as described previously and normalized to urine creatinine (Cr) levels measured using kits (Wako Pure Chemical Industries, Osaka, Japan), as described previously. Serum levels of blood urea nitrogen (BUN) and Cr were determined using BUN kits and Cr kits (both from Fuji Dry-Chem Slide, Fuji Film Medical, Tokyo, Japan), as described previously. Urine and blood samples were collected from the mice at different time points, which were analyzed for proteinuria and blood urea nitrogen (BUN) and creatinine (Cr) levels by using a urease assay and a picric acid method respectively (Nephron 1998; 78: 440-452).

Data set [2] deals with ROS and NO. In words: Mouse FSGS model: superoxide anion (ROS), DHE and NO in renal tissue, serum, urine. The class given is in vivo. The note with it: days 14 and 28. How it is done:
A progressive type of mouse FSGS model was used, particularly characterized by EPHLs, a key histopathology index of progression of FSGS, peri-glomerular inflammation, and progressive glomerular hyalinosis/sclerosis. The FSGS model was induced in 8-week-old male BALB/c mice (National Laboratory Animal Center, Taipei, Taiwan) by intravenous injection of a single dose of adriamycin (0.10 mg/10 g body weight) (Pfizer, New York, N.Y.) as described previously. […] Age- and sex-matched BALB/c mice were used as normal controls. Urine samples were collected in metabolic cages on days 3, 7, 14, 21, and 28. Renal cortical tissues and blood samples were collected when the mice were sacrificed and stored appropriately for further analysis. The concentration of urine protein was determined using BCA kits (Pierce, Rockford, Ill.) as described previously and normalized to urine creatinine (Cr) levels measured using kits (Wako Pure Chemical Industries, Osaka, Japan), as described previously. Serum levels of blood urea nitrogen (BUN) and Cr were determined using BUN kits and Cr kits (both from Fuji Dry-Chem Slide, Fuji Film Medical, Tokyo, Japan), as described previously. Superoxide anion levels in serum, urine, and kidney tissues were determined as described previously. The results were expressed as relative luminescence units (RLU) per 15 min per milliliter (i.e., RLU/15 min/ml) for serum and urine samples or per milligram dry weight (i.e., RLU/15 min/mg dry weight) for kidney tissues. In addition, renal superoxide anion levels were measured by dihydroethidium (DHE) binding, fluorescence being quantified by counting the percentage of the total nuclei that were positive per kidney cross section as described previously. NO levels in serum and urine were measured using NO detection kits (Abeam, Cambridge, Mass.) according to the manufacturer's instructions.

The test system of data set [3] is RAW 264.7 macrophages. In words: ROS production assay in LPS-activated macrophages. The class given is cell-based, murine. The note with it: Citral 10 μg/ml; 30 min before and during LPS (1 μg/ml) stimulation, 0-4 h. How it is done: (§1) ROS production was measured as the relative fluorescence intensity. […] The data are expressed as the mean±SD for three separate experiments. *p<0.05, **p<0.01 compared to the LPS-treated group. RAW-Blue™ cells (Murine macrophages RAW264.7 stably transfected with the NF-κB reporter gene) purchased from InvivoGen (San Diego, Calif.). LPS (from Escherichia coli 0111:B4) and mouse antibodies against phospho-ERK1/2, phospho-JNK1/2, and phospho-p38 (all from Sigma, St. Louis, Mo.). Rabbit antibodies against mouse ERK1, JNK1, and p38, and HRP-labeled second antibodies were purchased from Santa Cruz Biotechnology, and IL-1β, IL-6, and TNF-α ELISA kits from R&D Systems. ROS production assay, NO production assay, NF-κB reporter assay, ELISA, and Western blotting were performed as described previously.

For data set [4], the system named is RAW 264.7 macrophages. In words: NO production assay (Griess reaction) in LPS-activated macrophages. In kind it is cell-based, murine. Particulars: 30 min preincubation, then 24 h LPS 1 μg/ml; p<0.05. How it is done: as §1
On the technique in general: Griess reagent forms a coloured azo dye with nitrite.

The test system of data set [5] is NF-κB in RAW-Blue cells. In words: NF-κB reporter assay (secreted embryonic alkaline phosphatase, QUANTI-Blue). The class given is cell-based, murine. Particulars: 30 min preincubation, then 24 h LPS 1 μg/ml. How it is done:
as §1

Data set [6] has as its system RAW 264.7 macrophages. In words: Pro-inflammatory cytokine ELISA in LPS-activated macrophages. In kind it is cell-based, murine. Particulars: LPS 1 μg/ml 24 h, culture medium. How it is done:
as §1
For orientation: An ELISA detects its analyte on a solid surface through an enzyme-linked reagent.

For data set [7], the system named is ERK1/2, JNK1/2, p38 in RAW 264.7 macrophages. In words: MAPK phosphorylation (Western blotting) in LPS-activated macrophages. In kind it is cell-based, murine. The note with it: Citral 10 μg/ml; LPS 1 μg/ml 0-60 min; p<0.05. An excerpt: RAW-Blue™ cells (Murine macrophages RAW264.7 stably transfected with the NF-κB reporter gene) purchased from InvivoGen (San Diego, Calif.). LPS (from Escherichia coli 0111:B4) and mouse antibodies against phospho-ERK1/2, phospho-JNK1/2, and phospho-p38 (all from Sigma, St. Louis, Mo.). Rabbit antibodies against mouse ERK1, JNK1, and p38, and HRP-labeled second antibodies were purchased from Santa Cruz Biotechnology, and IL-1β, IL-6, and TNF-α ELISA kits from R&D Systems. ROS production assay, NO production assay, NF-κB reporter assay, ELISA, and Western blotting were performed as described previously.
On the technique in general: In western blotting, separated proteins are transferred to a membrane and probed.

A short description of data set [8]: Adverse side effects in animals. The note with it: in vivo.

For `CC(C)=CCCC(C)=CC=O` (racemic) [Citral, 3,7-dimethyl-2,6-octadienal], the “proteinuria (urine protein)” value in data set [1] (day 14, FSGS+Citral vs FSGS+vehicle mice) is on record as “slightly inhibited”. Further, in data set [1] (day 21, vs FSGS+vehicle mice, p<0.005), the “proteinuria (urine protein)” value is “markedly inhibited”. Besides, in data set [1] (day 28, vs FSGS+vehicle mice, p<0.01), the “proteinuria (urine protein)” value is listed as “markedly inhibited”. Further, in data set [1] (days 14 and 28, p<0.05), the “serum levels of BUN” value was “almost, or completely, suppressed” and the “serum levels of Cr” value is “almost, or completely, suppressed”. In addition, the “renal DHE levels (in situ ROS)” value in data set [2] (p<0.01) was “suppressed”. Besides, in data set [2] (vs FSGS+vehicle mice, p<0.01), the “superoxide anion levels in renal tissues” value is “markedly decreased”, the “superoxide anion levels in serum” value is reported as “markedly decreased” and the “superoxide anion levels in urine” value is listed as “markedly decreased”. Besides, in data set [2] (vs FSGS+vehicle, p<0.05), the “NO levels in serum” value is “significantly reduced” and the “NO levels in urine” value is recorded as “significantly reduced”. In data set [3], the “LPS-induced increase in ROS production” value is listed as “reduced”. Also, the “LPS-induced increase in NO generation” value in data set [4] is on record as “inhibited”. The “NF-κB transcriptional activity in LPS-stimulated macrophages” value in data set [5] is reported as “reduced”. Further, in data set [6], the “secretion level of IL-1β” value is recorded as “inhibited”, the “secretion level of IL-6” value is “inhibited” and the “secretion level of TNF-α” value is reported as “inhibited”. For the same compound, in data set [7], the “LPS-induced phosphorylation of ERK1/2” value is given as “significantly inhibited” and the “LPS-induced phosphorylation of JNK1/2” value is “significantly inhibited”. Also, the “adverse side effects to animals” value in data set [8] is given as “no apparent adverse side effects”.
